Data reported in patent publication US8889874B2, “Imidazolone-chalcone derivatives as potential anticancer agent and process for the preparation thereof” (Council of Scientific and Industrial Research, priority 2010, dated 2014).
Read-outs that look alike come from different tables or passages of the source.

Columns and labels:
Format in all cases: cell-based, human
A498 (renal) = test: NCI anticancer screen, SRB assay, 48 h; conditions: Homo sapiens
Summary of the method: (§1)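 Compounds were tested across fifty three human cancer cell lines from nine tumour types. Each line got a dose-response curve of at least five concentrations at 10-fold dilutions, with continuous drug exposure and sulforhodamine B protein staining to estimate viability or growth.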

HCC-2998 (colon) = test: NCI anticancer screen, SRB assay, 48 h; conditions: Homo sapiens
Summary of the method: as §1

HCT-116 (colon) = test: NCI anticancer screen, SRB assay, 48 h; conditions: Homo sapiens
Summary of the method: as §1

HCT-15 (colon) = test: NCI anticancer screen, SRB assay, 48 h; conditions: Homo sapiens
Summary of the method: as §1

[1] = system: HOP-62 (non-small cell lung); test: NCI anticancer screen, SRB assay, 48 h; conditions: Homo sapiens
Summary of the method: as §1

[2] = system: HOP-92 (non-small cell lung); test: NCI anticancer screen, SRB assay, 48 h; conditions: Homo sapiens
Summary of the method: as §1

HS 578T (breast) = test: NCI anticancer screen, SRB assay, 48 h; conditions: Homo sapiens
Summary of the method: as §1

[3] = system: K-562 (leukemia cell line); test: NCI anticancer screen, SRB assay, 48 h; conditions: Homo sapiens
Summary of the method: as §1

MDA-MB-231/ATCC (breast) = test: NCI anticancer screen, SRB assay, 48 h; conditions: Homo sapiens
Summary of the method: as §1

MDA-MB-435 (melanoma) = test: NCI anticancer screen, SRB assay, 48 h; conditions: Homo sapiens
Summary of the method: as §1

[4] = system: NCI-H23 (non-small cell lung); test: NCI anticancer screen, SRB assay, 48 h; conditions: Homo sapiens
Summary of the method: as §1

[5] = system: NCI-H460 (non-small cell lung); test: NCI anticancer screen, SRB assay, 48 h; conditions: Homo sapiens
Summary of the method: as §1

OVCAR-4 (ovarian) = test: NCI anticancer screen, SRB assay, 48 h; conditions: Homo sapiens
Summary of the method: as §1

SK-MEL-28 (melanoma) = test: NCI anticancer screen, SRB assay, 48 h; conditions: Homo sapiens
Summary of the method: as §1

SNB-75 (CNS) = test: NCI anticancer screen, SRB assay, 48 h; conditions: Homo sapiens
Summary of the method: as §1

TD-47D (breast) = test: NCI anticancer screen, SRB assay, 48 h; conditions: Homo sapiens
Summary of the method: as §1

UO-31 (renal) = test: NCI anticancer screen, SRB assay, 48 h; conditions: Homo sapiens
Summary of the method: as §1

Breast cancer cell lines = test: NCI anticancer screen, SRB assay, panel summary; conditions: Homo sapiens
Summary of the method: as §1

CNS cancer cell lines = test: NCI anticancer screen, SRB assay, panel summary; conditions: for GI50: Homo sapiens
Summary of the method: as §1

Colon cancer cell lines = test: NCI anticancer screen, SRB assay, panel summary; conditions: for GI50: Homo sapiens
Summary of the method: as §1

[6] = system: Leukemia cancer cell lines; test: NCI anticancer screen, SRB assay, panel summary; conditions: Homo sapiens
Summary of the method: as §1

[7] = system: Melanoma cancer cell lines; test: NCI anticancer screen, SRB assay, panel summary; conditions: for GI50: Homo sapiens
Summary of the method: as §1

[8] = system: Non-small cell lung cancer cell lines; test: NCI anticancer screen, SRB assay, panel summary; conditions: Homo sapiens
Summary of the method: as §1

[9] = system: Ovarian cancer cell lines; test: NCI anticancer screen, SRB assay, panel summary; conditions: Homo sapiens
Summary of the method: as §1

[10] = system: Prostate cancer cell lines; test: NCI anticancer screen, SRB assay, panel summary
Summary of the method: as §1

Renal cancer cell lines = test: NCI anticancer screen, SRB assay, panel summary; conditions: Homo sapiens
Summary of the method: as §1

[11] = 48 h exposure, SRB, read-out: GI50
[12] = read-out: pGI50 (-log of molar concentration causing 50% inhibition of net cell growth) (converted)

COc1cc(/C=C/C(=O)c2cccc(-n3cc(-c4ccccc4)[nH]c3=O)c2)cc(OC)c1OC [5a, 4-phenyl-1-3-[(E)-3-(3,4,5-trimethoxyphenyl)-2-propenoyl]phenyl-2,3-dihydro-1H-2-imidazolone] showed a GI50 (A498 (renal); [11]) of 2.65 µM, a GI50 (A498 (renal); [12]) of 2.63 µM and a GI50 (HCC-2998 (colon); [11]) of 1.26 µM. For the same compound, the GI50 (HCC-2998 (colon); [12]) was 1.26 µM, the GI50 (HCT-116 (colon); [11]) was 0.33 µM and the GI50 (HCT-116 (colon); [12]) was 0.331 µM. It also gave a GI50 (HCT-15 (colon); [11]) of 1.13 µM, a GI50 (HCT-15 (colon); [12]) of 1.12 µM and a GI50 [1, 11] of 4.12 µM. For the same compound, the GI50 [1, 12] was 4.07 µM, the GI50 [2, 11] was 10.8 µM and the GI50 [2, 12] was 10.7 µM. For the same compound, the GI50 (HS 578T (breast); [11]) was 3.41 µM, the GI50 (HS 578T (breast); [12]) was 3.39 µM and the GI50 ([3]; K562, 48 h exposure, SRB, read-out: GI50) was 0.5 µM. It also gave a GI50 ([3]; K562, read-out: pGI50 (-log of molar concentration causing 50% inhibition of net cell growth) (converted)) of 0.501 µM, a GI50 (MDA-MB-231/ATCC (breast); [11]) of 2.17 µM and a GI50 (MDA-MB-231/ATCC (breast); [12]) of 2.19 µM. It also gave a GI50 (MDA-MB-435 (melanoma); [11]) of 1.2 µM, a GI50 (MDA-MB-435 (melanoma); [12]) of 1.2 µM and a GI50 [4, 11] of 1.43 µM. For the same compound, the GI50 [4, 12] was 1.45 µM, the GI50 [5, 11] was 1.4 µM and the GI50 [5, 12] was 1.41 µM. For the same compound, the GI50 (OVCAR-4 (ovarian); [11]) was 1.88 µM, the GI50 (OVCAR-4 (ovarian); [12]) was 1.86 µM and the GI50 (SK-MEL-28 (melanoma); [11]) was 1.74 µM. For the same compound, the GI50 (SK-MEL-28 (melanoma); [12]) was 1.74 µM, the GI50 (SNB-75 (CNS); [11]) was 4.47 µM and the GI50 (SNB-75 (CNS); [12]) was 4.47 µM. It also gave a GI50 (TD-47D (breast); [11]) of 2.19 µM, a GI50 (TD-47D (breast); [12]) of 2.19 µM and a GI50 (UO-31 (renal); [11]) of 1.51 µM. For the same compound, the GI50 (UO-31 (renal); [12]) was 1.51 µM, the GI50 (Breast cancer cell lines; Breast panel, log of concentration in mol/L causing 50% inhibition of net cell growth, read-out: mean graph midpoint (MG_MID) of Log10 GI50 (converted)) was 1.58 µM and the LC50 (Breast cancer cell lines; Breast panel, log of concentration leading to 50% net cell death, read-out: mean graph midpoint (MG_MID) of Log10 LC50 (converted)) was 38 µM. The GI50 (Breast cancer cell lines; five breast cancer cell lines, exposure at least 48 hrs, read-out: GI50, range over the panel) was 0.31 to 3.41 µM, the “mean graph midpoint (MG_MID) of Log10 LC50” value (CNS cancer cell lines; CNS panel, log of concentration leading to 50% net cell death) was 5.13 and the GI50 (CNS cancer cell lines; CNS panel, log of concentration in mol/L causing 50% inhibition of net cell growth, read-out: mean graph midpoint (MG_MID) of Log10 GI50 (converted)) was 1.86 µM. For the same compound, the GI50 (CNS cancer cell lines; six CNS cancer cell lines, exposure at least 48 hrs, read-out: GI50, range over the panel) was 0.63 to 4.47 µM, the “mean graph midpoint (MG_MID) of Log10 LC50” value (Colon cancer cell lines; Colon panel, log of concentration leading to 50% net cell death) was 5.23 and the GI50 (Colon cancer cell lines; Colon panel, log of concentration in mol/L causing 50% inhibition of net cell growth, read-out: mean graph midpoint (MG_MID) of Log10 GI50 (converted)) was 0.832 µM. The GI50 (Colon cancer cell lines; seven colon cancer cell lines, exposure at least 48 hrs, read-out: GI50, range over the panel) was 0.33 to 1.51 µM, the GI50 ([6]; Leukemia panel, log of concentration in mol/L causing 50% inhibition of net cell growth, read-out: mean graph midpoint (MG_MID) of Log10 GI50 (converted)) was 0.562 µM and the LC50 ([6]; Leukemia panel, log of concentration leading to 50% net cell death, read-out: mean graph midpoint (MG_MID) of Log10 LC50 (converted)) was ≥ 100 µM. The GI50 ([6]; two leukemia cancer cell lines (RPMI-8226 and K-562), exposure at least 48 hrs, read-out: GI50, range over the panel) was 0.5 to 0.62 µM, the GI50 ([7]; Melanoma panel, log of concentration in mol/L causing 50% inhibition of net cell growth, read-out: mean graph midpoint (MG_MID) of Log10 GI50 (converted)) was 1.32 µM and the GI50 ([7]; nine melanoma cancer cell lines, exposure at least 48 hrs, read-out: GI50, range over the panel) was 0.48 to 2.06 µM. For the same compound, the “mean graph midpoint (MG_MID) of Log10 LC50” value ([7]; Melanoma panel, log of concentration leading to 50% net cell death) was 5.02, the GI50 ([8]; Non-small cell lung panel, log of concentration in mol/L causing 50% inhibition of net cell growth, read-out: mean graph midpoint (MG_MID) of Log10 GI50 (converted)) was 3.09 µM and the LC50 ([8]; Non-small cell lung panel, log of concentration leading to 50% net cell death, read-out: mean graph midpoint (MG_MID) of Log10 LC50 (converted)) was 32.4 µM. It also gave a GI50 ([8]; nine non-small cell lung cancer cell lines, exposure at least 48 hrs, read-out: GI50, range over the panel) of 0.95 to 14.6 µM, a GI50 ([9]; Ovarian panel, log of concentration in mol/L causing 50% inhibition of net cell growth, read-out: mean graph midpoint (MG_MID) of Log10 GI50 (converted)) of 1.74 µM and an LC50 ([9]; Ovarian panel, log of concentration leading to 50% net cell death, read-out: mean graph midpoint (MG_MID) of Log10 LC50 (converted)) of 42.7 µM. For the same compound, the GI50 ([9]; six ovarian cancer cell lines, exposure at least 48 hrs, read-out: GI50, range over the panel) was 1.1 to 3.27 µM, the GI50 ([10]; Homo sapiens, log of concentration in mol/L causing 50% inhibition of net cell growth, read-out: mean graph midpoint (MG_MID) of Log10 GI50 (converted)) was 3.24 µM and the LC50 ([10]; Homo sapiens, log of concentration leading to 50% net cell death, read-out: mean graph midpoint (MG_MID) of Log10 LC50 (converted)) was ≥ 100 µM. The “mean graph midpoint (MG_MID) of Log10 TGI” value ([10]; log of concentration resulting in total inhibition of net cell growth) was 4.68, the GI50 (Renal cancer cell lines; Renal panel, log of concentration in mol/L causing 50% inhibition of net cell growth, read-out: mean graph midpoint (MG_MID) of Log10 GI50 (converted)) was 1.91 µM and the LC50 (Renal cancer cell lines; Renal panel, log of concentration leading to 50% net cell death, read-out: mean graph midpoint (MG_MID) of Log10 LC50 (converted)) was 17 µM. For the same compound, the GI50 (Renal cancer cell lines; eight renal cancer cell lines, exposure at least 48 hrs, read-out: GI50, range over the panel) was 1.38 to 3.02 µM.
